In one experiment the test system is TNFα. Briefly: Cot Monocyte TNFα Cell Based Assay.
In a further experiment the target is Human Cot (Homo sapiens (Human), UniProt P41279). Briefly: High Throughput Cot Biochemical Assay.
[1] abbreviates: Homo sapiens, Monocyte, read-out: EC50 TNF, LPS-stimulated human monocytes, TNFα.
Setting [2] is: IC50 HTRF, Cot HTRF (TR-FRET) biochemical assay.
The mark [3] stands for this setting: Homo sapiens, Monocyte, read-out: EC50 TNF, LPS-stimulated human monocytes, TNFα TR-FRET.
Setting [4] is: IC50 HTRF, Cot HTRF (TR-FRET KinEASE) biochemical assay, 400 μM ATP.

Where two headings read alike, the source gives them in different places.

Chain of Human Cot (P41279 30-397): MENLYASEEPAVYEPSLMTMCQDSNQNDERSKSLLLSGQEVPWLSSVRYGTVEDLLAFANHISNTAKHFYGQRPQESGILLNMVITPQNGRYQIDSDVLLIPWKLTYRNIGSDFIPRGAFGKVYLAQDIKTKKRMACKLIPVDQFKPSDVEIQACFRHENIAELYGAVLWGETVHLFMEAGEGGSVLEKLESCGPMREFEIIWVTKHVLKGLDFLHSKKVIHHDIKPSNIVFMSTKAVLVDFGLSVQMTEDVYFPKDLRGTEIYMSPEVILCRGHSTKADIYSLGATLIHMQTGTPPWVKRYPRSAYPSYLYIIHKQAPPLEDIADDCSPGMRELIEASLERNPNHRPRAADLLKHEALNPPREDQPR

For the compound `[2H][C@](Nc1cc(Cl)c2ncc(C#N)c(N[C@@H](CC#N)c3ccccc3)c2c1)(c1ccc(F)nc1)c1cn(C2CC2)nn1` [Example 128, 8-chloro-4-(((S)-2-cyano-1-phenylethyl)amino)-6-(((S)-(1-cyclopropyl-1H-1,2,3-triazol-4-yl)(6-fluoropyridin-3-yl)methyl-d)amino)quinoline-3-carbonitrile], the EC50 (as a rule, the concentration needed to bring the measured effect to its halfway point) in the experiment on TNFα (setting [1]) was greater than 10000 nM. Moreover, at Human Cot (setting [2]), the IC50 (commonly the midpoint of a concentration-inhibition curve) was determined as 698 nM.

In the case of `Cn1ncc2c([C@H](Nc3cc(C#N)c4ncc(C#N)c(NCC(C)(C)C)c4c3)c3cn(C4(C(F)(F)F)CC4)nn3)cccc21` [Example 557, (S)-6-(((1-methyl-1H-indazol-4-yl)(1-(1-(trifluoro-methyl)cyclopropyl)-1H-1,2,3-triazol-4-yl)methyl)amino)-4-(neopentylamino)-quinoline-3,8-dicarbonitrile], the EC50 with TNFα (setting [1]) was 117 nM. The compound further gave an IC50 against Human Cot (setting [2]) of 5 nM.

Turning to `Cc1nc(F)ccc1[C@H](Nc1cc(Cl)c2ncc(C#N)c(NCC(C)(C)C(F)(F)F)c2c1)c1nnn(C2(C3CC3)CC2)c1F` [Example 957], the EC50 in the experiment on TNFα (read-out: EC50 TNF, LPS-stimulated human monocytes, TNFα TR-FRET) came to 54 nM. Also, at Human Cot (read-out: IC50 HTRF, Cot HTRF (TR-FRET KinEASE) biochemical assay, 400 μM ATP), the IC50 is 5 nM.

For the compound `Cc1nc(F)ccc1[C@H](Nc1cc(Cl)c2ncc(C#N)c(NCC(C)(C)C)c2c1)c1cn([C@@H]2C[C@@H]2F)nn1` [Example 579, 8-chloro-6-(((S)-(6-fluoro-2-methylpyridin-3-yl)(1-((lR,2S)-2-fluorocyclopropyl)-1H-1,2,3-triazol-4-yl)methyl)amino)-4-(neopentylamino)quinoline-3-carbonitrile], in the experiment with TNFα (read-out: EC50 TNF, LPS-stimulated human monocytes, TNFα), the 50% effective concentration (EC50) stood at 24 nM. In addition, the IC50 on Human Cot (read-out: IC50 HTRF, Cot HTRF (TR-FRET) biochemical assay) is 2 nM.

On to `Cc1nc(F)ccc1[C@H](Nc1cc(C#N)c2ncc(C#N)c(NCC(C)(C)C)c2c1)c1cn(CC2(C)CC2)nn1` [Example 866, (S)-6-(((6-fluoro-2-methylpyridin-3-yl)(1-((1-methylcyclopropyl)methyl)-1H-1,2,3-triazol-4-yl)methyl)amino)-4-(neopentylamino)quinoline-3,8-dicarbonitrile], for which the EC50 with TNFα (setting [3]) was 18 nM. At Human Cot (setting [4]), this compound returned an IC50 of 2 nM.

As for `CC(C)(C)CNc1c(C#N)cnc2c(Cl)cc(N[C@H](c3cn(C4(C(F)F)CC4)nn3)c3cccc4ncccc34)cc12` [Example 508, (S)-8-chloro-6-(((1-(1-(difluoromethyl)-cyclopropyl)-1H-1,2,3-triazol-4-yl)(quinolin-5-yl)methyl)amino)-4-(neopentylamino)-quinoline-3-carbonitrile], the EC50 in the experiment on TNFα (setting [1]) worked out at 96 nM. At Human Cot (setting [2]), the IC50 came out at 4 nM.

For the compound `Cc1nc(F)ccc1[C@H](Nc1cc(Cl)c2ncc(C#N)c(Nc3cnc(F)c(F)c3)c2c1)c1nnn(C2(C(F)F)CC2)c1F` [Example 953, (S)-8-chloro-6-(((1-(1-(difluoromethyl)cyclopropyl)-5-fluoro-1H-1,2,3-triazol-4-yl)(6-fluoro-2-methylpyridin-3-yl)methyl)amino)-4-((5,6-difluoropyridin-3-yl)amino)quinoline-3-carbonitrile], the EC50 in the experiment on TNFα (setting [3]) was determined as 353 nM. Also, the IC50 at Human Cot (setting [4]) was 36 nM.

For the compound `CC(C)(C)CNc1c(C#N)cnc2c(Cl)cc(N[C@H](c3cn(C4CC4)nn3)c3cccc4scnc34)cc12` [Example 449, (S)-6-((benzo[d]thiazol-4-yl(1-cyclopropyl-1H-1,2,3-triazol-4-yl)methyl)amino)-8-chloro-4-(neopentylamino)quinoline-3-carbonitrile], the EC50 with TNFα (setting [1]) was 407 nM. Further, it took 19 nM to reach half-maximal inhibition against Human Cot (setting [2]) (IC50).

For the compound `Cc1ncsc1[C@H](Nc1cc(Cl)c2ncc(C#N)c(Nc3ccc(F)c(Cl)c3)c2c1)c1cn(C(C)C)nn1` [Example 306, (R)-8-chloro-4-((3-chloro-4-fluorophenyl)amino)-6-(((1-isopropyl-1H-1,2,3-triazol-4-yl)(4-methylthiazol-5-yl)methyl)amino)quinoline-3-carbonitrile], in the experiment with TNFα (setting [1]), the EC50 was 202 nM. Also, 6 nM corresponded to half-maximal inhibition on Human Cot (setting [2]) (IC50).

Source of the values: patent US11066414B2, “Cot modulators and methods of use thereof” (Gilead Sciences, Inc., priority 2015, dated 2021).
